Data published in patent US20260285855A1, “HETEROARYL DERIVATIVES AS DDRS INHIBITORS” (CHIESI FARMACEUTICI S.P.A., priority 2023, published 2026).

What was measured:
[1] = biological target: T1, DDR2 (Homo sapiens, UniProt Q16832); assay: LanthaScreen Europium Kinase Binding assay, DDR2; conditions: 5 nM DDR2, 10 nM Kinase Tracer 178, 1 h at rt; Ki from IC50 by Cheng-Prusoff; read-out: Ki DDR2
T1 construct: purchased Life Technologies
T1 sequence (Q16832 22-855): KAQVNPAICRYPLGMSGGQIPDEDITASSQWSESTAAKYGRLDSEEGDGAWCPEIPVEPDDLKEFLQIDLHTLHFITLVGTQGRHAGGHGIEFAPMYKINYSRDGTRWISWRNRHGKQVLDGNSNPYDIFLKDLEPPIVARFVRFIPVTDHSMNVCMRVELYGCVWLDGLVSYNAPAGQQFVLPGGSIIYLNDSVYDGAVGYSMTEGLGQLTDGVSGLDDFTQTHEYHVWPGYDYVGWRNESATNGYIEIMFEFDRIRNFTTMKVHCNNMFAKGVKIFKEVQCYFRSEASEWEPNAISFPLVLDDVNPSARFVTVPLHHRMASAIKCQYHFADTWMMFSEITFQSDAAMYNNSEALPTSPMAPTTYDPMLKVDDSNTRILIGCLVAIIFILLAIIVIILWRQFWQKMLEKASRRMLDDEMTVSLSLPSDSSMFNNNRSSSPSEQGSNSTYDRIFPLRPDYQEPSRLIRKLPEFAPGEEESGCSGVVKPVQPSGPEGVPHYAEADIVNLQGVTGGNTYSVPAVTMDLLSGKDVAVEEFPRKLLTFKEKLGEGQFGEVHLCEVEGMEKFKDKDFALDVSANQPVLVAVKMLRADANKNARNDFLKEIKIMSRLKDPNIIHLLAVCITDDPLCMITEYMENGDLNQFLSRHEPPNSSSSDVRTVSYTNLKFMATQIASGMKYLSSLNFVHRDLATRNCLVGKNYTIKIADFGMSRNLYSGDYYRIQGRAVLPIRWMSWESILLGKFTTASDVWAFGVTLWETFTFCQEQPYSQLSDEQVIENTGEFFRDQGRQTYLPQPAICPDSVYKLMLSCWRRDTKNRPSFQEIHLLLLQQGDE
Procedure: (§1) DDR1 and DDR2 binding assays were performed using Life Technologies LanthaScreen™ Europium Kinase Binding assay. […] IC50 values were determined in GraphPad Prism 7.0 software, using 4 parameter model: log (inhibitor) vs. response. IC50 values were converted in Ki using the Cheng-Prusoff equation (Ki-IC50/(1+ [Tracer]/Kd).

[2] = biological target: T2, DDR1 (Homo sapiens, UniProt Q08345); assay: LanthaScreen Europium Kinase Binding assay, DDR1; conditions: 5 nM DDR1, 20 nM Kinase Tracer 178, 1 h at rt; Ki from IC50 by Cheng-Prusoff; read-out: Ki DDR1
T2 construct: purchased Carna Biosciences
T2 sequence (Q08345 19-913): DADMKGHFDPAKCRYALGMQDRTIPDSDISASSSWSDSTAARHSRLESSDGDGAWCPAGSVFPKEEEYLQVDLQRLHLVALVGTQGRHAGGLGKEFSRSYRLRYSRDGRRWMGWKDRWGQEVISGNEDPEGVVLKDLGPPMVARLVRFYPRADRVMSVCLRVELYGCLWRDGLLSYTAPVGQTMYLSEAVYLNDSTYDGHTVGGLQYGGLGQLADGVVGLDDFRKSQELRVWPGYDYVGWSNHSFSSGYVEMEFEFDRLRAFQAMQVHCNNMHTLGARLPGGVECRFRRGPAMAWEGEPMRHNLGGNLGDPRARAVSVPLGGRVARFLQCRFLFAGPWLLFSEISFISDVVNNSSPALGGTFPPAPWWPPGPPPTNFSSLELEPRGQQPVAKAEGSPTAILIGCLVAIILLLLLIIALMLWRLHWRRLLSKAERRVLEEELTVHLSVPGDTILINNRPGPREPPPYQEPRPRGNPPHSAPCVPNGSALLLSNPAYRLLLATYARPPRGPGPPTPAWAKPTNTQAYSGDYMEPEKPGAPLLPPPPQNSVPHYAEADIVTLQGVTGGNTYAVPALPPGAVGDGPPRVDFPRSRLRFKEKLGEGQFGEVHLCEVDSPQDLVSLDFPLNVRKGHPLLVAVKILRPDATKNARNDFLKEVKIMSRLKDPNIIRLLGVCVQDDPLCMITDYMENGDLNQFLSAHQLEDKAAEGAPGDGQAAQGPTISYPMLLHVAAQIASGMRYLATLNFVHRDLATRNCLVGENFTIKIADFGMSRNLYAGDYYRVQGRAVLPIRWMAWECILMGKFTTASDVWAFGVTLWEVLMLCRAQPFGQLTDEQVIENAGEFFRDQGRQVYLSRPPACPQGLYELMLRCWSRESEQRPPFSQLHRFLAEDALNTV
Procedure: as §1

Ki [1] [nM] | Ki [2] [nM] | Compound
5 to 25 | < 5 | O=C(Nc1cccc(C(F)(F)F)c1)NC1CC2(C1)CN(C(=O)c1cnn3c1SCC3)C2 [Example 135, 1-(2-(2,3-dihydropyrazolo[5,1-b]thiazole-7-carbonyl)-2-azaspiro[3.3]heptan-6-yl)-3-(3-(trifluoromethyl)phenyl)urea]
5 to 25 | < 5 | CN(C(=O)Nc1cc(Br)ccn1)C1CC2(C1)CN(C(=O)c1cnn3ccsc13)C2 [Example 226, 3-(4-bromopyridin-2-yl)-1-methyl-1-(2-(pyrazolo[5,1-b]thiazole-7-carbonyl)-2-azaspiro[3.3]heptan-6-yl)urea]
5 to 25 | < 5 | CN(C(=O)Nc1cc(OC(F)(F)F)ccn1)C1CC2(C1)CN(C(=O)c1cnn3ccccc13)C2 [Example 239, 1-methyl-1-(2-(pyrazolo[1,5-a]pyridine-3-carbonyl)-2-azaspiro[3.3]heptan-6-yl)-3-(4-(trifluoromethoxy)pyridin-2-yl)urea]
5 to 25 | < 5 | O=C(Nc1cc(C(F)(F)F)ncn1)OC1CC2(C1)CN(C(=O)c1cnn3ccsc13)C2 [Example 292, 2-(pyrazolo[5,1-b]thiazole-7-carbonyl)-2-azaspiro[3.3]heptan-6-yl(6-(trifluoromethyl)pyrimidin-4-yl)carbamate]
5 to 25 | < 5 | O=C(Nc1cncc(C(F)(F)F)c1)NC1CC2(C1)CN(c1cnc3[nH]ncc3c1)C2 [Example 304, 1-(2-(1H-pyrazolo[3,4-b]pyridin-5-yl)-2-azaspiro[3.3]heptan-6-yl)-3-(5-(trifluoromethyl)pyridin-3-yl)urea]
5 to 25 | < 5 | COc1ccc(-c2ccc3c(C(=O)N4CC5(CC(N(C)C(=O)Nc6cncc(C(F)(F)F)c6)C5)C4)cnn3c2)cn1 [Example 253, 1-(2-(6-(6-methoxypyridin-3-yl)pyrazolo[1,5-a]pyridine-3-carbonyl)-2-azaspiro[3.3]heptan-6-yl)-1-methyl-3-(5-(trifluoromethyl)pyridin-3-yl)urea]

The next lines start with the compound.

Compound | Ki [1] [nM] | Ki [2] [nM]
Cn1ccn2ncc(C(=O)N3CC4(CC(NC(=O)Nc5cc(C(F)(F)F)cc(C#N)n5)C4)C3)c12 [Example 168, 1-(6-cyano-4-(trifluoromethyl)pyridin-2-yl)-3-(2-(1-methyl-1H-imidazo[1,2-b]pyrazole-7-carbonyl)-2-azaspiro[3.3]heptan-6-yl)urea] | 5 to 25 | < 5
CN(C(=O)Nc1cncc(C(F)(F)F)c1)C1CC2(C1)CN(C(=O)c1ncnc3ccsc13)C2 [Example 130, 1-methyl-1-(2-(thieno[3,2-d]pyrimidine-4-carbonyl)-2-azaspiro[3.3]heptan-6-yl)-3-(5-(trifluoromethyl)pyridin-3-yl)urea] | 5 to 25 | < 5
O=C(Nc1cccc(C(F)(F)F)c1)NC1CC2(C1)CN(C(=O)c1cnn3ccn(C4COC4)c13)C2 [Example 167, 1-(2-(1-(oxetan-3-yl)-1H-imidazo[1,2-b]pyrazole-7-carbonyl)-2-azaspiro[3.3]heptan-6-yl)-3-(3-(trifluoromethyl)phenyl)urea] | 5 to 25 | < 5
CN(C(=O)Nc1cc(C(F)(F)F)cs1)C1CC2(C1)CN(C(=O)c1cnn3ccn(C)c13)C2 [Example 291, 1-methyl-1-(2-(1-methyl-1H-imidazo[1,2-b]pyrazole-7-carbonyl)-2-azaspiro[3.3]heptan-6-yl)-3-(4-(trifluoromethyl)thiophen-2-yl)urea] | 5 to 25 | < 5
CN1CCN(c2ccn3ncc(C(=O)N4CC5(CC(NC(=O)Nc6cc(C#N)cc(C(F)(F)F)c6)C5)C4)c3c2)CC1 [Example 87, 1-(3-cyano-5-(trifluoromethyl)phenyl)-3-(2-(5-(4-methylpiperazin-1-yl)pyrazolo[1,5-a]pyridine-3-carbonyl)-2-azaspiro[3.3]heptan-6-yl)urea] | 5 to 25 | < 5
COc1ccc(OC(F)(F)F)cc1NC(=O)N(C)C1CC2(C1)CN(C(=O)c1ncnc3ccsc13)C2 [Example 77, 3-(2-methoxy-5-(trifluoromethoxy)phenyl)-1-methyl-1-(2-(thieno[3,2-d]pyrimidine-4-carbonyl)-2-azaspiro[3.3]heptan-6-yl)urea] | 5 to 25 | < 5
Cn1ccn2ncc(C(=O)N3CC4(CC(NC(=O)Nc5cc(F)cc(OC(F)(F)F)c5)C4)C3)c12 [Example 124, 1-(3-fluoro-5-(trifluoromethoxy)phenyl)-3-(2-(1-methyl-1H-imidazo[1,2-b]pyrazole-7-carbonyl)-2-azaspiro[3.3]heptan-6-yl)urea] | < 5 | < 5
Cc1c(F)cc(C(F)(F)F)cc1NC(=O)N(C)C1CC2(C1)CN(C(=O)c1cnn3ccn(C)c13)C2 [Example 283, 3-(3-fluoro-2-methyl-5-(trifluoromethyl)phenyl)-1-methyl-1-(2-(1-methyl-1H-imidazo[1,2-b]pyrazole-7-carbonyl)-2-azaspiro[3.3]heptan-6-yl)urea] | 5 to 25 | < 5
COc1ccn2ncc(C(=O)N3CC4(CC(N(C)C(=O)Nc5cncc(C(F)(F)F)c5)C4)C3)c2c1 [Example 251, 1-(2-(5-methoxypyrazolo[1,5-a]pyridine-3-carbonyl)-2-azaspiro[3.3]heptan-6-yl)-1-methyl-3-(5-(trifluoromethyl)pyridin-3-yl)urea] | 5 to 25 | < 5
CN(C(=O)Nc1cc(F)cc(C(F)(F)F)c1)C1CC2(C1)CN(C(=O)c1cnn3ccn(C)c13)C2 [Example 64, 3-(3-fluoro-5-(trifluoromethyl)phenyl)-1-methyl-1-(2-(1-methyl-1H-imidazo[1,2-b]pyrazole-7-carbonyl)-2-azaspiro[3.3]heptan-6-yl)urea] | 5 to 25 | < 5
COc1ccc(C(F)(F)F)cc1NC(=O)NC1CC2(C1)CN(C(=O)c1cnn3ccn(C)c13)C2 [Example 65, 1-(2-methoxy-5-(trifluoromethyl)phenyl)-3-(2-(1-methyl-1H-imidazo[1,2-b]pyrazole-7-carbonyl)-2-azaspiro[3.3]heptan-6-yl)urea] | 5 to 25 | < 5
Cc1ccc(C(F)(F)F)cc1NC(=O)N(C)C1CC2(C1)CN(C(=O)c1cnn3ccn(C)c13)C2 [Example 232, 1-methyl-1-(2-(1-methyl-1H-imidazo[1,2-b]pyrazole-7-carbonyl)-2-azaspiro[3.3]heptan-6-yl)-3-(2-methyl-5-(trifluoromethyl)phenyl)urea] | 5 to 25 | < 5
Cc1ncc(-c2ccc3c(C(=O)N4CC5(CC(N(C)C(=O)Nc6cncc(C(F)(F)F)c6)C5)C4)cnn3c2)cn1 [Example 246, 1-methyl-1-(2-(6-(2-methylpyrimidin-5-yl)pyrazolo[1,5-a]pyridine-3-carbonyl)-2-azaspiro[3.3]heptan-6-yl)-3-(5-(trifluoromethyl)pyridin-3-yl)urea] | 25 to 100 | 5 to 25
CN(C(=O)Nc1cc(C(F)(F)F)ccc1Cl)C1CC2(C1)CN(C(=O)c1ncnc3[nH]ccc13)C2 [Example 285, 1-(2-(7H-pyrrolo[2,3-d]pyrimidine-4-carbonyl)-2-azaspiro[3.3]heptan-6-yl)-3-(2-chloro-5-(trifluoromethyl)phenyl)-1-methylurea] | < 5 | < 5
